Data on four molecules can be found in patent US20160355530A1, “HEPATITIS C INHIBITORS AND USES THEREOF” (AbbVie Inc., priority 2010, published 2016).

As a reminder, the EC50 is the concentration that produces a half-maximal response. As a reminder, the IC50 is the concentration that inhibits the measured activity by half.

The test system of assay [1] is chimeric replicon with genotype 2b NS5B. The assay is described as follows: microbe, parasite or virus in culture. Conditions: Hepatitis C virus, read-out: 2b chimera 5% FBS EC50. Type of assay: cell-based, HCV genotype 2b.
The target in assay [2] is T1, HCV NS5B polymerase 1b BK strain (Hepatitis C virus genotype 1b, UniProt P26663).
T1 construct: six-histidine tag; made in house; host or cells: E. coli
Kind of assay: HCV NS5B polymerase enzymatic inhibition assay, strain 1b BK. Type of assay: biochemical. To be noted: enzyme, strain 1b BK; read-out: HCV Polymerase Strain 1b BK IC50. In outline:
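Recombinant NS5B (residues 1–570, His-tagged, E. coli-expressed) copied 5 nM of a 2.1 kb HCV 1b negative-strand 3′-end RNA template with 20 μM CTP, 20 μM ATP and 0.284 μM [3H]UTP for 3 h at 30 °C. Spermine-precipitated RNA was filter-captured and counted, and IC50 was fitted by nonlinear regression.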

Assay [3] concerns the target T2, HCV NS5B polymerase 1b Rice (Hepatitis C virus genotype 1b, UniProt Q9WMX2).
T2 construct: six-histidine tag; made in house; host or cells: E. coli
Kind of assay: HCV NS5B polymerase enzymatic inhibition assay, strain 1b Rice. To be noted: enzyme. Type of assay: biochemical, HCV genotype 1b. As to the method: Purified HCV NS5B polymerase enzymes were used for polymerase inhibition assays. All recombinant HCV polymerases contained the first 570 amino acids of the 591 amino acid native protein sequence and a six-histidine tag at the N-terminus or C-terminus to facilitate purification by affinity chromatography. The DNA nucleotide sequence for the HCV polymerase 1b BK strain was codon optimized for expression in E. coli. A synthetic gene was prepared from a series of overlapping oligonucleotides that were filled in using a DNA polymerase and amplified by PCR. The patient isolate HCV polymerases were cloned by RT-PCR methods using HCV RNA extracted from the serum of infected subjects obtained from ProMedDx and BioCollections (genotypes 2a, 2b, 3a, and 4a). Laboratory strains were cloned from plasmid DNA (1a-H77 or 1a-H77-C316Y) or from existing replicon cells (1b Rice). In all cases the amplified DNA was cloned into a protein expression vector (typically a pET vector from Novagen) and then multiple clones were sequenced to identify one whose NS5B sequence agreed with the population sequence. This sequence-confirmed clone was then transfected into E. coli for protein expression and purification. E. coli cultures were grown to a maximum optical density (OD) of 2-3 and then induced with 0.4 mM isopropyl beta-D-thiogalactopyranoside (IPTG) and grown for 20 hours at 20° C.
Proteins were purified using nickel affinity chromatography, and additional column steps were added including, ion exchange, size exclusion, hydrophobic ion, and poly-U affinity chromatography, as needed, depending on the sample being purified. The template RNA used in the polymerase enzymatic assay was a 2.1 kb construct that corresponds to the 3′-end of an HCV genotype 1b negative strand RNA.
The reaction was initiated by the addition of 20 μM CTP, 20 μM ATP, 0.284 μM (0.5 μCi) of 5,6-[^3H] UTP, 5 nM template RNA and 0.1 U/μL RNase inhibitor (RNasin, Promega), and allowed to proceed for three hours at 30° C. The final reaction volume was 50 μL. The reaction was terminated by the addition of 50 uL of 4 mM spermine in 10 mM Tris-HCl, pH 7.5, 1 mM EDTA. The quenched reaction was allowed to incubate for at least 15 minutes at room temperature, and then the precipitated RNA was captured by filtration through a glass fiber filter (GF/B, Millipore) in a 96 well format. The filter plate was washed five times with 200 μL of 2 mM spermine, 10 mM Tris-HCl, pH 8.0, 1 mM EDTA, and two times with ethanol. After drying thoroughly in air, 30 μL of Microscint-20 scintillation cocktail (Perkin Elmer) was added to each well, and the retained cpm were determined by scintillation counting. IC50 values were determined by nonlinear regression.
% Inhibition=100*[[I]/([I]+[IC50])] equation 1
V=kcat[S]/2(Km+[S])*(sqrt((IC50+I−E)̂2+(4*IC50*E))−(IC50+I−E)) equation 2

Assay [4] relates to chimeric replicon with genotype 3a NS5B. The assay is described as follows: microbe, parasite or virus in culture. Type of assay: cell-based, HCV genotype 3a. Conditions: Hepatitis C virus, read-out: 3a chimera 5% FBS EC50.
The subject of assay [5] is chimeric replicon with 2a-J6CF-derived NS5B. Kind of assay: microbe, parasite or virus in culture. It is filed as cell-based, HCV genotype 2a. Conditions: Hepatitis C virus, read-out: 2a chimera 5% FBS EC50.
Assay [6] deals with chimeric replicon with genotype 4a NS5B. Kind of assay: microbe, parasite or virus in culture. To be noted: Hepatitis C virus, read-out: 4a chimera 5% FBS EC50. It is filed as cell-based, HCV genotype 4a.
Assay [7] deals with HCV 1a-H77-C316Y transient subgenomic replicon in Huh-7 derived cell line. Kind of assay: microbe, parasite or virus in culture. It is filed as cell-based, HCV genotype 1a. To be noted: for EC50: Hepatitis C virus, Huh-7, read-out: Transient Replicon 1a H77-C316Y 5% FBS EC50; for Transient Replicon Fold Resistance C316Y/1a: ratio of transient replicon EC50s, C316Y / 1a H77. In outline: (§1)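 Subgenomic replicon RNA (no Neo gene) electroporated into Huh-7-derived cells, plated at 5×10^3 cells/well; a 4 h plate gauged transfection efficiency. Cells exposed to 3-fold compound dilutions (0.5% DMSO) for 4 days at 37° C, then lysed for luciferase readout; EC50 calculated.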
A general note: Replicon systems follow genome replication, usually without infectious particles.

Assay [8] has as its system HCV 1a-H77 transient subgenomic replicon in Huh-7 derived cell line. The assay is described as follows: microbe, parasite or virus in culture. Conditions: Hepatitis C virus, Huh-7; transient replicon, 5% FBS; read-out: Transient Replicon 1a H77 5% FBS EC50. Type of assay: cell-based, HCV genotype 1a. In outline:
as §1

The subject of assay [9] is HCV 1a-H77 subgenomic replicon. The assay is described as follows: microbe, parasite or virus in culture. It is filed as cell-based, HCV genotype 1a. Conditions: Hepatitis C virus, stable replicon.
Assay [10] has as its system HCV 1a-H77 C316Y mutant subgenomic replicon. The assay is described as follows: Stable replicon cell culture assay (luciferase), 1a-H77-C316Y mutant. It is filed as cell-based, HCV genotype 1a. Conditions: for EC50: Hepatitis C virus, read-out: Stable Replicon 1a H77-C316Y 5% FBS EC50; for Stable Replicon Fold Resistance C316Y/1a: ratio of stable replicon EC50s, C316Y / 1a H77.

Where [11] appears, read: 5% FBS, absence of human plasma, read-out: Stable Replicon 1a H77 5% FBS EC50.
Setting [12] is: strain 1a H77, 5% FBS + 40% human plasma, read-out: 1a H77 5% FBS + 40% Human Plasma EC50.
[13] abbreviates: strain 1a H77, 5% FBS, no human plasma, read-out: 1a H77 5% FBS EC50.
Setting [14] is: strain 1a H77, 5% FBS, read-out: 1a H77 5% FBS EC50.

SMILES strings stand for the structures. Like-named read-outs stand apart in the source and are kept apart here.

T1 sequence (P26663 2420-2989): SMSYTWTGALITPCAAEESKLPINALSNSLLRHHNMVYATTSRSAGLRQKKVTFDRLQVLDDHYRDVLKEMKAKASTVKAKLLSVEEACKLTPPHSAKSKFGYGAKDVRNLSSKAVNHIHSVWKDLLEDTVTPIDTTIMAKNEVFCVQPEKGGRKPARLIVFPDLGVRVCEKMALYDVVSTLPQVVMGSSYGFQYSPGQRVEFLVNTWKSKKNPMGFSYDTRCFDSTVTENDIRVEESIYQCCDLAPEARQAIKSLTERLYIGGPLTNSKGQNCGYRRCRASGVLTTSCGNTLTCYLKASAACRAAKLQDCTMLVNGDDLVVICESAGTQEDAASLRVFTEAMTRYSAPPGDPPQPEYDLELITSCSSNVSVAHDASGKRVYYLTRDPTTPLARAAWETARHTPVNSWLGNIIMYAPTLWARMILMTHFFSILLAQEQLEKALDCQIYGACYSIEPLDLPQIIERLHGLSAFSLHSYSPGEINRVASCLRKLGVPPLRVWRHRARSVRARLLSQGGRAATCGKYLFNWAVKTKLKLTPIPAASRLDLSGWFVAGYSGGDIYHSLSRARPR

Consider `CCCC/C=C/c1ccc(-c2oc3cc(N(CCCCS(C)(=O)=O)S(C)(=O)=O)c(C4CC4)cc3c2-c2ncc[nH]2)cc1` [Example 168, N-[5-cyclopropyl-2-{4-[(1E)-hex-1-en-1-yl]phenyl}-3-(1H-imidazol-2-yl)-1-benzofuran-6-yl]-N-[4-(methylsulfonyl)butyl]methanesulfonamide], for which the EC50 in assay [1] was found to be 13.3 nM; in assay [4], 12.7 nM; in assay [5], 6 nM; in assay [6], 14.4 nM; in assay [7] it was 14.4 nM; in [8], 0.6 nM. Also, the EC50 came out at 1.8 nM in [9] (setting [11]); 18.4 nM in assay [9] (setting [12]); 1.8 nM in assay [9] (setting [13]); 1.8 nM in assay [9] (setting [14]); 17.6 nM in assay [10]. For the same molecule, the IC50 is 39.2 nM in assay [2] and 4.9 nM in assay [3]. Further, the “Transient Replicon Fold Resistance C316Y/1a” value in assay [7] was found to be 24 fold. In addition, the “Stable Replicon Fold Resistance C316Y/1a” value in [10] stood at 9.72 fold.
In the case of `CS(=O)(=O)N(CCO)c1cc2oc(-c3ccc(F)cc3)c(C3=NOCCN3)c2cc1C1CC1` [Example 136, N-[5-cyclopropyl-3-(5,6-dihydro-4H-1,2,4-oxadiazin-3-yl)-2-(4-fluorophenyl)-1-benzofuran-6-yl]-N-(2-hydroxyethyl)methanesulfonamide], the EC50 in [1] was 426 nM; in assay [4], 42 nM; in assay [5] it was 204 nM; in [6], 291 nM; in assay [7], 679 nM; in assay [8] it was 32.4 nM. Besides, the EC50 turned out to be 26.6 nM in [9] (setting [11]); 347 nM in assay [9] (setting [12]); 26.6 nM in assay [9] (setting [13]); 26.6 nM in assay [9] (setting [14]); 561 nM in assay [10]. Moreover, the IC50 in assay [2] is 200 nM; in assay [3] it was 57 nM. Further, in assay [7], the “Transient Replicon Fold Resistance C316Y/1a” value was 21 fold. Further, the “Stable Replicon Fold Resistance C316Y/1a” value in [10] was determined as 42.0 fold.
For the molecule `CS(=O)(=O)CCCCN(c1cc2oc(-c3ccc(Nc4ccccc4)cc3)c(-c3ncc[nH]3)c2cc1C1CC1)S(C)(=O)=O` [Example 169, N-[2-(4-anilinophenyl)-5-cyclopropyl-3-(1H-imidazol-2-yl)-1-benzofuran-6-yl]-N-[4-(methylsulfonyl)butyl]methanesulfonamide], the EC50 amounted to 12.3 nM in assay [1]; 15 nM in assay [4]; 16.9 nM in [5]; 4.3 nM in assay [6]; 4.1 nM in assay [7]; 0.6 nM in assay [8]. Further, the EC50 in assay [9] (setting [11]) worked out at 2.1 nM; in assay [9] (setting [12]), 14.8 nM; in [9] (setting [13]), 2.1 nM; in [9] (setting [14]), 2.14 nM; in [10], 11.4 nM. Moreover, the half-maximal inhibitory concentration (IC50) came out at 39.1 nM in assay [2] and 9.4 nM in assay [3]. Besides, the “Transient Replicon Fold Resistance C316Y/1a” value in assay [7] was found to be 6 fold. Further, in assay [10], the “Stable Replicon Fold Resistance C316Y/1a” value stood at 5.33 fold.
For `CS(=O)(=O)N(CCO)c1cc2oc(-c3ccc(F)cc3)c(-c3ncc[nH]3)c2cc1C1CC1` [Example 109, N-[5-cyclopropyl-2-(4-fluorophenyl)-3-(1H-imidazol-2-yl)-1-benzofuran-6-yl]-N-(2-hydroxyethyl)methanesulfonamide], the EC50 in [1] was 120 nM; in assay [4] it was 6.8 nM; in assay [5] it was 115 nM; in assay [6], 166 nM; in [7] it was 1300 nM; in assay [8], 38 nM. The EC50 in assay [9] (setting [11]) was 19.8 nM; in [9] (setting [12]), 420 nM; in assay [9] (setting [13]), 19.8 nM; in assay [9] (setting [14]) it was 19.8 nM; in [10], 467 nM. The results for the 50% inhibitory concentration (IC50) in assay [2] and in assay [3] were 61.7 nM and 16.9 nM, respectively. In assay [7], the “Transient Replicon Fold Resistance C316Y/1a” value is on record as 34 fold. Besides, the “Stable Replicon Fold Resistance C316Y/1a” value in [10] stood at 23.6 fold.
